Measured values: patent EP1561465A2, “Methods of use of fluoroquinolone compounds against bacteria” (LG Life Sciences, Ltd., priority 1999, dated 2001)
Values after ≈ are worked out from the molar mass of the structure shown. Read-outs that look alike come from different tables or passages of the source.

Tests used:
Assay type in all cases: cell-based
[1] = system: Mycobacterium tuberculosis (MTB); test: MIC by proportions method (NCCLS M24-T, 1995), 82 MTB strains; conditions: compared with the other quinolones
Salmonella spp. [2] = test: MIC by agar dilution (NCCLS M7-A4), 288 enteropathogenic isolates, eight quinolones; conditions: for MIC: ciprofloxacin MIC ≥[…], read-out: MIC
Enterococcus faecalis = test: MIC by agar dilution (NCCLS), 411 isolates Buenos Aires 1998-99; conditions: Enterococcus faecalis (n = 48)
Streptococcus pneumoniae [3] = test: MIC by NCCLS reference broth microdilution, 450 respiratory tract pathogens; conditions: Streptococcus pneumoniae
Haemophilus influenzae [4] = test: as above; conditions: Haemophilus influenzae; for MIC90: read-out: MIC90
Moraxella catarrhalis = test: as above
Haemophilus influenzae [5] = test: MIC by broth microdilution (NCCLS), dried MicroScan panels, clinical isolates 1998-1999; conditions: for MIC90: Haemophilus influenzae
P. aeruginosa = test: MIC by two-fold serial agar dilution, quinolone-resistant strains; conditions: Pseudomonas aeruginosa
Streptococcus pneumoniae [6] = test: MIC by NCCLS broth microdilution, 1100 Japanese clinical isolates 1997-1998; conditions: for MIC: Streptococcus pneumoniae quinolone resistant
Enterobacter cloacae = test: as above; conditions: Enterobacter cloacae (n=40)
Salmonella spp. [7] = test: as above; conditions: Salmonella spp. (n=29)
Pseudomonas aeruginosa = test: MIC by agar dilution (NCCLS), 322 nosocomial Gram negative isolates, Athens 1998; conditions: n = 57 isolates
Enterobacter spp. = test: as above; conditions: n = 57 isolates
Streptococcus pneumoniae [8] = test: MIC by E-test (broth microdilution for gemifloxacin), 107 pneumococcal carrier isolates, Athens 1998; conditions: for MIC Range: in µg/mL (unit assumed); for MIC50 / MIC90: Streptococcus pneumoniae; for MIC90: read-out: MIC90
Experimental: Susceptibility testing was performed by agar dilution or epsilometer method (E-test), as recommended by the NCCLS. […] The susceptibility profiles of the strains were assessed using the Epsilometer method (E-test). The isolates were subdivided into two groups according to their penicillin susceptibility patterns (penicillin-susceptible and penicillin-intermediate.

Enterococcus faecium = test: MIC by agar macrodilution (NCCLS), 373 Gram positive isolates, Athens 1998
Shigella spp. = test: MIC by agar dilution (NCCLS M7-A4), 288 enteropathogenic isolates, gemifloxacin and 15 other antimicrobials; conditions: Shigella spp. N= 21
How it was run: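 Agar dilution with ~10^4 cfu/spot inoculum; plates incubated aerobically at 35 °C for 24 h, except C. jejuni, held microaerophilically for 48 h. MIC taken as lowest antibiotic concentration with no visible growth.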

[9] = Streptococcus pneumoniae (n = 100)
[10] = erythromycin resistant M phenotype (n = 16)
[11] = erythromycin resistant MLSB phenotype (n = 16)
[12] = penicillin intermediate (n = 16)
[13] = penicillin susceptible (n = 20)
[14] = Haemophilus influenzae (n = 100)
[15] = Haemophilus influenzae (300 isolates)
[16] = Streptococcus pneumoniae erythromycin resistant (n=34)
[17] = Streptococcus pneumoniae erythromycin susceptible (n=11)
[18] = Penicillin-intermediate S. pneumoniae (n = 24), E-test
[19] = Penicillin-susceptible S. pneumoniae (n = 107), E-test

## N[C@@H]1[C@H]2CN(c3nc4c(cc3F)c(=O)c(C(=O)O)cn4-c3ccc(F)cc3F)C[C@@H]12 [Trovafloxacin, trovafloxacin]
[1]
  in vitro activity against MTB: lower in vitro activity
Salmonella spp. [2]; S. hadar (n = 2)
  MIC: 0.5 µg/mL (≈ 1.2 µM)
Salmonella spp. [2]; S. newport (n = 1)
  MIC: 0.5 µg/mL (≈ 1.2 µM)
Salmonella spp. [2]; S. virchow (n = 2)
  MIC: 0.25 µg/mL (≈ 0.6 µM)
Salmonella spp. [2]; Salmonella spp. (n = 106)
  % Susceptible: 100%
  MIC50: 0.06 µg/mL (≈ 0.144 µM)
  MIC90: 0.25 µg/mL (≈ 0.6 µM)
  MIC Range: ≤0.015 to 1 µg/mL
Salmonella spp. [2]; Salmonella, S. tshiongwe (n = 1)
  MIC: 1 µg/mL (≈ 2.4 µM)
Enterococcus faecalis
  MIC90: 8 µg/mL (≈ 19.2 µM)
  MIC Range: ≤0.004 to 16 µg/mL
Streptococcus pneumoniae [3]; [9]
  MIC: 0.03 to 0.25 µg/mL (≈ 0.0721 to 0.6 µM)
  MIC50: 0.12 µg/mL (≈ 0.288 µM)
  MIC90: 0.12 µg/mL (≈ 0.288 µM)
Streptococcus pneumoniae [3]; [10]
  MIC: 0.06 to 0.12 µg/mL (≈ 0.144 to 0.288 µM)
  MIC50: 0.06 µg/mL (≈ 0.144 µM)
  MIC90: 0.12 µg/mL (≈ 0.288 µM)
Streptococcus pneumoniae [3]; [11]
  MIC: 0.06 to 0.12 µg/mL (≈ 0.144 to 0.288 µM)
  MIC50: 0.06 µg/mL (≈ 0.144 µM)
  MIC90: 0.12 µg/mL (≈ 0.288 µM)
Streptococcus pneumoniae [3]; multi-drug resistant (n = 16)
  MIC: 0.06 to 0.12 µg/mL (≈ 0.144 to 0.288 µM)
  MIC50: 0.06 µg/mL (≈ 0.144 µM)
  MIC90: 0.12 µg/mL (≈ 0.288 µM)
Streptococcus pneumoniae [3]; [12]
  MIC: 0.06 to 0.12 µg/mL (≈ 0.144 to 0.288 µM)
  MIC50: 0.12 µg/mL (≈ 0.288 µM)
  MIC90: 0.12 µg/mL (≈ 0.288 µM)
Streptococcus pneumoniae [3]; penicillin resistant (n = 18)
  MIC: 0.06 to 0.25 µg/mL (≈ 0.144 to 0.6 µM)
  MIC50: 0.12 µg/mL (≈ 0.288 µM)
  MIC90: 0.12 µg/mL (≈ 0.288 µM)
Streptococcus pneumoniae [3]; [13]
  MIC: 0.06 to 0.12 µg/mL (≈ 0.144 to 0.288 µM)
  MIC50: 0.12 µg/mL (≈ 0.288 µM)
  MIC90: 0.12 µg/mL (≈ 0.288 µM)
Haemophilus influenzae [4]; [14]
  MIC: 0.0075 to 0.25 µg/mL (≈ 0.018 to 0.6 µM)
  MIC50: ≤ 0.00075 µg/mL
  MIC90: 0.06 µg/mL (≈ 0.144 µM)
Haemophilus influenzae [4]; β-lactamase negative (n = 80)
  MIC: 0.0075 to 0.25 µg/mL (≈ 0.018 to 0.6 µM)
  MIC50: ≤ 0.0075 µg/mL
  MIC90: 0.015 µg/mL (≈ 0.036 µM)
Haemophilus influenzae [4]; β-lactamase positive (n = 20)
  MIC: 0.0075 to 0.06 µg/mL (≈ 0.018 to 0.144 µM)
  MIC50: ≤ 0.0075 µg/mL
  MIC90: 0.06 µg/mL (≈ 0.144 µM)
Moraxella catarrhalis; Moraxella catarrhalis (n = 50)
  MIC: 0.00375 to 0.06 µg/mL (≈ 0.00901 to 0.144 µM)
  MIC50: 0.015 µg/mL (≈ 0.036 µM)
  MIC90: 0.06 µg/mL (≈ 0.144 µM)
Moraxella catarrhalis; β-lactamase negative (n = 13)
  MIC: 0.00375 to 0.06 µg/mL (≈ 0.00901 to 0.144 µM)
  MIC50: 0.0075 µg/mL (≈ 0.018 µM)
  MIC90: 0.036 µg/mL (≈ 0.0865 µM)
Moraxella catarrhalis; β-lactamase positive (n = 37)
  MIC: 0.00375 to 0.06 µg/mL (≈ 0.00901 to 0.144 µM)
  MIC50: 0.015 µg/mL (≈ 0.036 µM)
  MIC90: 0.03 µg/mL (≈ 0.0721 µM)
Haemophilus influenzae [5]; [15]
  MIC50: ≤ 0.015 µg/mL
  MIC Range: ≤0.015 to 0.25 µg/mL
  MIC90: ≤ 0.015 µg/mL
Haemophilus influenzae [5]; β-lactamase negative (234)
  MIC90: ≤ 0.015 µg/mL
Haemophilus influenzae [5]; β-lactamase positive (66)
  MIC90: 0.03 µg/mL (≈ 0.0721 µM)
P. aeruginosa
  MIC: 1 µg/mL (≈ 2.4 µM)
Streptococcus pneumoniae [6]; Streptococcus pneumoniae
  MIC50: 0.125 µg/mL (≈ 0.3 µM)
  MIC90: 0.125 µg/mL (≈ 0.3 µM)
Streptococcus pneumoniae [6]; Streptococcus pneumoniae amoxicillin resistant (n=40)
  MIC Range: 0.063 to 1 µg/mL
Streptococcus pneumoniae [6]; Streptococcus pneumoniae amoxicillin susceptible (n=35)
  MIC Range: 0.063 to 1 µg/mL
Streptococcus pneumoniae [6]; [16]
  MIC90: 0.125 µg/mL (≈ 0.3 µM)
  MIC Range: 0.063 to 1 µg/mL
Streptococcus pneumoniae [6]; [17]
  MIC90: 0.125 µg/mL (≈ 0.3 µM)
  MIC Range: 0.063 to 0.125 µg/mL
Streptococcus pneumoniae [6]; Streptococcus pneumoniae, Streptococcus pneumoniae amoxicillin resistant (n=40), read-out: MIC50
  MIC50: 0.063 µg/mL (≈ 0.151 µM)
Streptococcus pneumoniae [6]; Streptococcus pneumoniae, Streptococcus pneumoniae amoxicillin susceptible (n=35), read-out: MIC50
  MIC50: 0.063 µg/mL (≈ 0.151 µM)
Streptococcus pneumoniae [6]; Streptococcus pneumoniae, Streptococcus pneumoniae amoxicillin susceptible (n=35), read-out: MIC90
  MIC90: 0.25 µg/mL (≈ 0.6 µM)
Streptococcus pneumoniae [6]; Streptococcus pneumoniae, Streptococcus pneumoniae erythromycin resistant (n=34), read-out: MIC50
  MIC50: 0.063 µg/mL (≈ 0.151 µM)
Streptococcus pneumoniae [6]; Streptococcus pneumoniae, strain TMS1
  MIC: 0.25 µg/mL (≈ 0.6 µM)
Streptococcus pneumoniae [6]; Streptococcus pneumoniae, strain TMS2
  MIC: 1 µg/mL (≈ 2.4 µM)
Enterobacter cloacae
  MIC50: 0.032 µg/mL (≈ 0.0769 µM)
  MIC90: 1 µg/mL (≈ 2.4 µM)
  MIC Range: ≤0.008 to 2 µg/mL
Salmonella spp. [7]
  MIC50: 0.032 µg/mL (≈ 0.0769 µM)
  MIC90: 0.063 µg/mL (≈ 0.151 µM)
  MIC Range: 0.016 to 0.063 µg/mL
Pseudomonas aeruginosa
  MIC50: 2 µg/mL (≈ 4.8 µM)
  MIC90: > 64 µg/mL
Enterobacter spp.; Enterobacter, read-out: MIC50
  MIC50: 0.125 µg/mL (≈ 0.3 µM)
Enterobacter spp.; Enterobacter, read-out: MIC90
  MIC90: 16 µg/mL (≈ 38.4 µM)
Enterobacter spp.
  MIC Range: ≤0.03 to 64 µg/mL
Streptococcus pneumoniae [8]; [18]
  MIC Range: 0.003-1
  MIC90: 0.38 µg/mL (≈ 0.913 µM)
Streptococcus pneumoniae [8]; [19]
  MIC Range: 0.008-1
  MIC90: 0.19 µg/mL (≈ 0.456 µM)
Streptococcus pneumoniae [8]
  MIC50: 0.125 µg/mL (≈ 0.3 µM)
Streptococcus pneumoniae [8]; Penicillin-susceptible S. pneumoniae (n = 107), E-test, read-out: MIC50
  MIC50: 0.094 µg/mL (≈ 0.226 µM)
Enterococcus faecium
  MIC distribution (µg/ml) 0.03: 0
  MIC distribution (µg/ml) 0.06: 0
  MIC distribution (µg/ml) 0.125: 0
  MIC distribution (µg/ml) 0.25: 1
  MIC distribution (µg/ml) 0.5: 6
  MIC distribution (µg/ml) 1: 2
  MIC distribution (µg/ml) 2: 0
  MIC distribution (µg/ml) 4: 0
  MIC distribution (µg/ml) 8: 1
  MIC distribution (µg/ml) 16: 0
  MIC distribution (µg/ml) ≤0.015: 0
  MIC distribution (µg/ml) ≥32: 4
Enterococcus faecium; Enterococcus faecium, n = 14 isolates, read-out: MIC50
  MIC50: 0.5 µg/mL (≈ 1.2 µM)
Enterococcus faecium; Enterococcus faecium, n = 14 isolates, read-out: MIC90
  MIC90: ≥ 32 µg/mL
Shigella spp.; 24 h, read-out: MIC (mg/L) Range
  MIC: ≤ 0.015 mg/L
Shigella spp.; read-out: MIC (mg/L) 50%
  MIC: ≤ 0.015 mg/L
Shigella spp.; read-out: MIC (mg/L) 90%
  MIC: ≤ 0.015 mg/L
